In the NIST ThermoML archive (doi:10.1016/j.jct.2010.11.007):

Assay: xn = mol fraction of the nth substance listed
Details: Liquid; for speed of sound: Sing-around technique in a fixed-path interferometer; for mass density: Vibrating tube method

C=CC(C)(O)CCC=C(C)C (stereo unspecified) [3,7-dimethyl-1,6-octadien-3-ol] + CCCO
Details	mass density, 283.15 K [kg/m3]	mass density, 298.15 K [kg/m3]	mass density, 313.15 K [kg/m3]	mass density, 328.15 K [kg/m3]	speed of sound, 283.15 K [m/s]	speed of sound, 298.15 K [m/s]	speed of sound, 313.15 K [m/s]	speed of sound, 328.15 K [m/s]
101 kPa, x1 = 0.0533	–	–	–	–	–	–	1171.9	1121
101 kPa, x1 = 0.0551	819.82	807.92	795.75	783.12	1274.4	1222.4	–	–
101 kPa, x1 = 0.1051	826.23	814.32	802.06	789.69	1288.6	1236	1184.2	1132.6
101 kPa, x1 = 0.2014	836.56	824.59	812.16	799.39	1308.8	1255.7	1203.6	1151
101 kPa, x1 = 0.3032	–	832.73	–	807.41	–	–	–	–
101 kPa, x1 = 0.3049	845.01	–	820.4	–	1326.2	1272.1	1218	1165.3
101 kPa, x1 = 0.3869	850.24	838.05	825.47	–	–	1281.3	1227.7	–
101 kPa, x1 = 0.3946	–	–	–	–	1336.7	–	–	–
101 kPa, x1 = 0.3947	–	–	–	812.99	–	–	–	1174.8
101 kPa, x1 = 0.4923	855.58	843.28	830.75	–	–	–	–	–
101 kPa, x1 = 0.4925	–	–	–	817.72	–	–	–	–
101 kPa, x1 = 0.4951	–	–	–	–	1345.4	1290.3	1236.5	1183.1
101 kPa, x1 = 0.5905	859.44	–	834.56	–	–	–	–	–
101 kPa, x1 = 0.5917	–	847.16	–	821.54	1350.8	1295.7	1242.2	1189.7
101 kPa, x1 = 0.6818	–	–	–	824.42	–	–	–	–
101 kPa, x1 = 0.6847	–	–	–	–	1355.2	1301	1247.2	1193.6
101 kPa, x1 = 0.6895	862.58	–	837.72	–	–	–	–	–
101 kPa, x1 = 0.69	–	850.31	–	–	–	–	–	–
101 kPa, x1 = 0.7653	–	852.26	839.66	826.67	–	–	1250.9	1197
101 kPa, x1 = 0.7685	864.67	–	–	–	1359	1304.8	–	–
101 kPa, x1 = 0.8735	866.97	854.67	842.05	829.08	1364.2	1309.4	1255.2	1201.2
101 kPa, x1 = 0.9296	868.12	855.79	843.14	830.17	1366.3	1311.8	1258	1204.4
101 kPa, x1 = 1	869.39	857	844.29	831.31	1370.6	1315.1	1260.8	1207.6
20000 kPa, x1 = 0.0582	833.8	822.8	811.8	800.4	–	–	–	–
20000 kPa, x1 = 0.1037	839.4	828.4	817.4	806	–	–	–	–
20000 kPa, x1 = 0.1803	847.1	836.2	825.1	813.6	–	–	–	–
20000 kPa, x1 = 0.3087	857.5	846.3	834.9	823.4	–	–	–	–
20000 kPa, x1 = 0.4104	863.5	852.3	840.7	829.1	–	–	–	–
20000 kPa, x1 = 0.4994	867.6	856.4	844.9	833.2	–	–	–	–
20000 kPa, x1 = 0.5939	871.3	860	848.4	836.7	–	–	–	–
20000 kPa, x1 = 0.7117	875.1	863.7	852.2	840.5	–	–	–	–
20000 kPa, x1 = 0.7777	876.8	865.5	853.9	842.2	–	–	–	–
20000 kPa, x1 = 0.8566	878.5	867	855.5	843.8	–	–	–	–
20000 kPa, x1 = 0.9405	880.2	868.8	857.3	845.6	–	–	–	–
20000 kPa, x1 = 1	881.2	869.7	858.1	846.4	–	–	–	–
25000 kPa, x1 = 0.0582	837	826.1	815.4	804.3	–	–	–	–
25000 kPa, x1 = 0.1037	842.5	831.7	820.9	809.7	–	–	–	–
25000 kPa, x1 = 0.1803	850.1	839.3	828.4	817.1	–	–	–	–
25000 kPa, x1 = 0.3087	860.5	849.4	838.3	826.9	–	–	–	–
25000 kPa, x1 = 0.4104	866.4	855.4	844.1	832.7	–	–	–	–
25000 kPa, x1 = 0.4994	870.5	859.5	848.1	836.7	–	–	–	–
25000 kPa, x1 = 0.5939	874.2	863	851.7	840.2	–	–	–	–
25000 kPa, x1 = 0.7117	877.9	866.7	855.4	843.9	–	–	–	–
25000 kPa, x1 = 0.7777	879.6	868.5	857.1	845.6	–	–	–	–
25000 kPa, x1 = 0.8566	881.3	870	858.7	847.2	–	–	–	–
25000 kPa, x1 = 0.9405	883	871.8	860.4	848.9	–	–	–	–
25000 kPa, x1 = 1	884	872.7	861.3	849.8	–	–	–	–
30000 kPa, x1 = 0.0582	839.8	829.3	818.7	807.8	–	–	–	–
30000 kPa, x1 = 0.1037	845.3	834.9	824.3	813.3	–	–	–	–
30000 kPa, x1 = 0.1803	852.9	842.5	831.7	820.7	–	–	–	–
30000 kPa, x1 = 0.3087	863.2	852.5	841.5	830.4	–	–	–	–
30000 kPa, x1 = 0.4104	869.1	858.4	847.2	836	–	–	–	–
30000 kPa, x1 = 0.4994	873.2	862.4	851.2	840	–	–	–	–
30000 kPa, x1 = 0.5939	876.8	866	854.8	843.6	–	–	–	–
30000 kPa, x1 = 0.7117	880.6	869.7	858.5	847.2	–	–	–	–
30000 kPa, x1 = 0.7777	882.2	871.4	860.2	848.9	–	–	–	–
30000 kPa, x1 = 0.8566	883.9	872.9	861.7	850.4	–	–	–	–
30000 kPa, x1 = 0.9405	885.6	874.7	863.4	852.1	–	–	–	–
30000 kPa, x1 = 1	886.6	875.6	864.3	853	–	–	–	–
35000 kPa, x1 = 0.0582	842.8	832.4	822.1	811.3	–	–	–	–
35000 kPa, x1 = 0.1037	848.3	837.9	827.5	816.7	–	–	–	–
35000 kPa, x1 = 0.1803	855.7	845.4	834.8	823.9	–	–	–	–
35000 kPa, x1 = 0.3087	866	855.4	844.6	833.6	–	–	–	–
35000 kPa, x1 = 0.4104	871.9	861.2	850.4	839.3	–	–	–	–
35000 kPa, x1 = 0.4994	875.9	865.2	854.3	843.2	–	–	–	–
35000 kPa, x1 = 0.5939	879.4	868.7	857.8	846.7	–	–	–	–
35000 kPa, x1 = 0.7117	883.2	872.4	861.5	850.4	–	–	–	–
35000 kPa, x1 = 0.7777	884.9	874.1	863.2	852.1	–	–	–	–
35000 kPa, x1 = 0.8566	886.5	875.6	864.7	853.6	–	–	–	–
35000 kPa, x1 = 0.9405	888.2	877.3	866.4	855.2	–	–	–	–
35000 kPa, x1 = 1	889.2	878.3	867.3	856.2	–	–	–	–
40000 kPa, x1 = 0.0582	845.5	835.4	825.1	814.7	–	–	–	–
40000 kPa, x1 = 0.1037	851.1	840.9	830.7	820.1	–	–	–	–
40000 kPa, x1 = 0.1803	858.4	848.3	837.9	827.2	–	–	–	–
40000 kPa, x1 = 0.3087	868.6	858.3	847.7	836.9	–	–	–	–
40000 kPa, x1 = 0.4104	874.6	864	853.3	842.4	–	–	–	–
40000 kPa, x1 = 0.4994	878.5	867.9	857.3	846.4	–	–	–	–
40000 kPa, x1 = 0.5939	882.1	871.5	860.7	849.8	–	–	–	–
40000 kPa, x1 = 0.7117	885.9	875.1	864.4	853.5	–	–	–	–
40000 kPa, x1 = 0.7777	887.5	876.8	866.1	855.1	–	–	–	–
40000 kPa, x1 = 0.8566	889.1	878.3	867.6	856.6	–	–	–	–
40000 kPa, x1 = 0.9405	890.8	880	869.2	858.2	–	–	–	–
40000 kPa, x1 = 1	891.8	881	870.2	859.2	–	–	–	–
